The target of the test is T1, GLP-1R (Homo sapiens, UniProt P43220).
T1 construct: host or cells: CRE-bla CHO-K1
Put plainly: EC20 GLP-1(9-36) PAM cAMP assay: dose response of compound in the presence of fixed concentration of GLP-1(9-36). It counts as cell-based. To be noted: GLP-1R CRE-bla CHO-K1 cells, compound dose response in presence of fixed concentration of GLP-1(9-36). In outline:
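Positive allosteric modulation read as cAMP rise: 12-point compound titration combined with a fixed EC20 level of GLP-1(9-36) on GLP-1R CHO-K1 cells, IBMX present, 30 min at 37 °C. Luminescent HitHunter signal converted to cAMP; nonlinear fit gave EC50 and Emax.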
On the technique in general: Changes in cAMP serve as a functional read-out for many G protein-coupled receptors.

A value given as a limit tells only on which side of the number the result lay.

T1 sequence (P43220 24-463): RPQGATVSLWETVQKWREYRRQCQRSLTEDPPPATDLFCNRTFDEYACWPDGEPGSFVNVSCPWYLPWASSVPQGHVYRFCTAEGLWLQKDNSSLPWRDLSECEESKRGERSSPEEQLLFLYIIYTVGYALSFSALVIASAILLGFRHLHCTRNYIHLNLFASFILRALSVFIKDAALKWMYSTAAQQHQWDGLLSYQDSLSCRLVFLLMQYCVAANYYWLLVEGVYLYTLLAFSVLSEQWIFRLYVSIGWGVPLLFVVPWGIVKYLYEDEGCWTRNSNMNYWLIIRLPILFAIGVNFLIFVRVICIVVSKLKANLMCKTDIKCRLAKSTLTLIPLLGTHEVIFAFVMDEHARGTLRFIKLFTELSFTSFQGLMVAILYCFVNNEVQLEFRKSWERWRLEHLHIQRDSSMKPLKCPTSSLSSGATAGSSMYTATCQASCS
T1 sequence (P01275 100-127 partner limits assumed): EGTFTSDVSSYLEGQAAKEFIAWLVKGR

Consider `CCCCCCCOc1ccc(-c2cnc(-c3ccc(C[C@H](NC(=O)c4ccc(C(C)C)cc4)C(=O)N[C@@H](CC(=O)O)C(=O)O)cc3)nc2)cc1` [Compound 307], for which the EC50 lay within 0.8 to 2.5 µM.

As for `CCCCCCCOc1ccc(-c2cnc(-c3ccc(C[C@H](NC(=O)c4ccc(C(C)C)cc4)C(=O)N[C@@H](CC(C)C)C(=O)O)cc3)nc2)cc1` [Compound 308], the EC50 lay within 0.8 to 2.5 µM.

With `CCCCCCCOc1ccc(-c2cnc(-c3ccc(C[C@H](NC(=O)c4ccc(C(C)C)cc4)C(=O)N[C@@H](CO)C(=O)O)cc3)nc2)cc1` [Compound 309], the EC50 is below 0.8 µM.

Regarding `CCCCCCCOc1ccc(-c2cnc(-c3ccc(C[C@H](NC(=O)c4ccc(C(C)C)cc4)C(=O)N[C@@H](CCCCN)C(=O)O)cc3)nc2)cc1` [Compound 310], the EC50 was below 0.8 µM.

In the case of `CCCCCCCOc1ccc(-c2cnc(-c3ccc(C[C@H](NC(=O)c4ccc(C(C)C)cc4)C(=O)N[C@@H](Cc4cnc[nH]4)C(=O)O)cc3)nc2)cc1` [Compound 311], the EC50 fell in the range of 0.8 to 2.5 µM.

As to `CCCCCCCOc1ccc(-c2cnc(-c3ccc(C[C@H](NC(=O)c4ccc(C(C)C)cc4)C(=O)N[C@H](C)C(=O)O)cc3)nc2)cc1` [Compound 312], the EC50 is 0.8 to 2.5 µM.

Turning to `CCCCCCCOc1ccc(-c2cnc(-c3ccc(C[C@H](NC(=O)c4ccc(C(C)C)cc4)C(=O)N[C@H](CC(C)C)C(=O)O)cc3)nc2)cc1` [Compound 313], the EC50 lay within 0.8 to 2.5 µM.

Regarding `CCCCCCCOc1ccc(-c2cnc(-c3ccc(C[C@H](NC(=O)c4ccc(C(C)C)cc4)C(=O)N[C@H](CCCCN)C(=O)O)cc3)nc2)cc1` [Compound 314], the EC50 lay within 0.8 to 2.5 µM.

For the molecule `CCCCCCCOc1ccc(-c2cnc(-c3ccc(C[C@H](NC(=O)c4ccc(C(C)C)cc4)C(=O)N[C@H](CO)C(=O)O)cc3)nc2)cc1` [Compound 315], the EC50 lay in the range of 0.8 to 2.5 µM.

Consider `CCCCCCCOc1ccc(-c2cnc(-c3ccc(C[C@H](NC(=O)c4ccc(C(C)C)cc4)C(=O)N[C@H](Cc4cnc[nH]4)C(=O)O)cc3)nc2)cc1` [Compound 316], for which the EC50 was below 0.8 µM.

With `CCCCCCCOc1ccc(-c2cnc(-c3ccc(C[C@H](NC(=O)c4ccc(C(C)C)cc4)C(=O)NCC(=O)O)cc3)nc2)cc1` [Compound 317], the concentration giving a half-maximal response (EC50) was below 0.8 µM.

`CCCCCCOc1ccc(-c2cnc(-c3ccc(C[C@H](NC(=O)c4ccc(C(C)(C)C)cc4)C(=O)NCC(=O)O)cc3)nc2)cc1` [Compound 318]: the EC50 was below 0.8 µM.

For `CCCCCCCOc1ccc(-c2cnc(-c3ccc(C[C@H](NC(=O)c4ccc(C(C)(C)C)s4)C(=O)NCC(=O)O)cc3)nc2)cc1` [Compound 319, (S)-(2-(5-(tert-butyl)thiophene-2-carboxamido)-3-(4-(5-(4-(heptyloxy)phenyl)pyrimidin-2-yl)phenyl)propanoyl)glycine], the EC50 was below 0.8 µM.

Take `CCCCCCCOc1ccc(-c2cnc(-c3ccc(C[C@H](NC(=O)c4ccc(C(C)(C)C)s4)C(=O)N[C@@H](CCC(N)=O)C(=O)O)cc3)nc2)cc1` [Compound 320, ((S)-2-(5-(tert-butyl)thiophene-2-carboxamido)-3-(4-(5-(4-(heptyloxy)phenyl)pyrimidin-2-yl)phenyl)propanoyl)-L-glutamine]: the EC50 is below 0.8 µM.

Consider `CCCCCCCOc1ccc(-c2cnc(-c3ccc(C[C@H](NC(=O)c4ccc(C(C)(C)C)s4)C(=O)N[C@@H](CC(N)=O)C(=O)O)cc3)nc2)cc1` [Compound 321], for which the EC50 was below 0.8 µM.

As to `CCCCCCCOc1ccc(-c2cnc(-c3ccc(C[C@H](NC(=O)c4ccc(C(C)(C)C)s4)C(=O)N[C@@H](CC(=O)O)C(=O)O)cc3)nc2)cc1` [Compound 322], the EC50 is 0.8 to 2.5 µM.

`CCCCCCCOc1ccc(-c2cnc(-c3ccc(C[C@H](NC(=O)c4ccc(C(C)(C)C)s4)C(=O)N[C@H](CO)C(=O)O)cc3)nc2)cc1` [Compound 323]: the EC50 was below 0.8 µM.

Turning to `CCCCCCCOc1ccc(-c2cnc(-c3ccc(C[C@H](NC(=O)c4ccc(C(C)(C)C)s4)C(=O)N[C@H](CC(=O)O)C(=O)O)cc3)nc2)cc1` [Compound 324], the EC50 lay within 0.8 to 2.5 µM.

Consider `CCCCCCCOc1ccc(-c2cnc(-c3ccc(C[C@H](NC(=O)c4ccc(C(C)(C)C)s4)C(=O)N[C@H](Cc4cnc[nH]4)C(=O)O)cc3)nc2)cc1` [Compound 325], for which the EC50 fell in the range of 5 to 10 µM.

In the case of `CCCCCCCOc1ccc(-c2cnc(-c3ccc(C[C@H](NC(=O)c4ccc(C(C)(C)C)s4)C(=O)N[C@@H](CO)C(=O)O)cc3)nc2)cc1` [Compound 326], the EC50 is below 0.8 µM.

`CCCCCCCOc1ccc(-c2cnc(-c3ccc(C[C@H](NC(=O)c4ccc(C(C)(C)C)s4)C(=O)N[C@H](C)C(=O)O)cc3)nc2)cc1` [Compound 327]: the EC50 was below 0.8 µM.

In the case of `CCCCCCCOc1ccc(-c2cnc(-c3ccc(C[C@H](NC(=O)c4ccc(C(C)(C)C)s4)C(=O)N4CCC[C@H]4C(=O)O)cc3)nc2)cc1` [Compound 328], the EC50 lay in the range of 0.8 to 2.5 µM.

Regarding `CCCCCCCOc1ccc(-c2cnc(-c3ccc(C[C@H](NC(=O)c4ccc(C(C)(C)C)s4)C(=O)N4CCC[C@@H]4C(=O)O)cc3)nc2)cc1` [Compound 329], the EC50 lay within 0.8 to 2.5 µM.

For `CCCCCCCOc1ccc(-c2cnc(-c3ccc(C[C@H](NC(=O)c4ccc(C(C)(C)C)s4)C(=O)N[C@@H](CCC(=O)O)C(=O)O)cc3)nc2)cc1` [Compound 330], the EC50 fell in the range of 0.8 to 2.5 µM.

On to `CCCCCCCOc1ccc(-c2cnc(-c3ccc(C[C@H](NC(=O)c4ccc(C(C)(C)C)s4)C(=O)N[C@H](CCC(=O)O)C(=O)O)cc3)nc2)cc1` [Compound 331], for which the EC50 fell in the range of 0.8 to 2.5 µM.

As for `CCCCCCCOc1ccc(-c2cnc(-c3ccc(C[C@H](NC(=O)c4ccc(C(C)(C)C)s4)C(=O)N[C@@H](Cc4cnc[nH]4)C(=O)O)cc3)nc2)cc1` [Compound 332], the EC50 fell in the range of 0.8 to 2.5 µM.

On to `CCCCCCCOc1ccc(-c2cnc(-c3ccc(C[C@H](NC(=O)c4ccc(C(C)(C)C)s4)C(=O)N[C@@H](C)C(=O)O)cc3)nc2)cc1` [Compound 333], for which the EC50 is below 0.8 µM.

As to `CCCCCCCOc1ccc(-c2cnc(-c3ccc(C[C@H](NC(=O)c4ccc(C(C)(C)C)s4)C(=O)N(C)CCC(=O)O)cc3)nc2)cc1` [Compound 334], the EC50 fell in the range of 0.8 to 2.5 µM.

Turning to `CCCCCCCOc1ccc(-c2cnc(-c3ccc(C[C@H](NC(=O)c4ccc(C(C)(C)C)s4)C(=O)NC(C)(C)CC(=O)O)cc3)nc2)cc1` [Compound 335], the EC50 fell in the range of 0.8 to 2.5 µM.

With `CCCCCCCOc1ccc(-c2cnc(-c3ccc(C[C@H](NC(=O)c4ccc(C(C)(C)C)s4)C(=O)NCCC(=O)O)cc3)nc2)cc1` [Compound 336], the EC50 was below 0.8 µM.

For `CCCCCCCOc1ccc(-c2cnc(-c3ccc(C[C@H](NC(=O)c4ccc(C(C)(C)C)s4)C(=O)NC(CN(C)C)C(=O)O)cc3)nc2)cc1` (some centres unmarked) [Compound 337], the EC50 lay within 0.8 to 2.5 µM.

As to `CCCCCCCOc1ccc(-c2cnc(-c3ccc(C[C@H](NC(=O)c4ccc(C(C)(C)C)s4)C(=O)NC(CN4CCCC4)C(=O)O)cc3)nc2)cc1` (some centres unmarked) [Compound 338], the EC50 lay within 0.8 to 2.5 µM.

Consider `CCCCCCCOc1ccc(-c2cnc(-c3ccc(C[C@H](NC(=O)c4ccc(C(C)(C)C)s4)C(=O)N4CCNC(C(=O)O)C4)cc3)nc2)cc1` (some centres unmarked) [Compound 339], for which the EC50 lay in the range of 0.8 to 2.5 µM.

With `CCCCCCCOc1ccc(-c2cnc(-c3ccc(C[C@H](NC(=O)c4ccc(C(C)(C)C)s4)C(=O)NCC4(C(=O)O)CC4)cc3)nc2)cc1` [Compound 340], the EC50 lay in the range of 0.8 to 2.5 µM.

For `CCCCCCCOc1ccc(-c2cnc(-c3ccc(C[C@H](NC(=O)c4ccc(C(C)(C)C)s4)C(=O)N[C@H](CCC(N)=O)C(=O)O)cc3)nc2)cc1` [Compound 341], the EC50 was below 0.8 µM.

In the case of `CCCCCCOc1ccc(-c2cnc(-c3ccc(C[C@H](NC(=O)c4ccc(C(C)(C)C)s4)C(=O)NCC4(C(=O)O)CCC4)cc3)nc2)cc1` [Compound 342], the EC50 fell in the range of 0.8 to 2.5 µM.

`CCCCCCCOc1ccc(-c2cnc(-c3ccc(C[C@H](NC(=O)c4ccc(C(C)(C)C)s4)C(=O)N[C@H](CC(=O)O)Cc4ccccc4)cc3)nc2)cc1` [Compound 343]: the EC50 is 0.8 to 2.5 µM.

Turning to `CCCCCCCOc1ccc(-c2cnc(-c3ccc(C[C@H](NC(=O)c4ccc(C(C)(C)C)s4)C(=O)N4CCC(C(=O)O)C4)cc3)nc2)cc1` (some centres unmarked) [Compound 344], the EC50 is below 0.8 µM.

As to `CCCCCCCOc1ccc(-c2cnc(-c3ccc(C[C@H](NC(=O)c4ccc(C(C)(C)C)s4)C(=O)N[C@H](C)CC(=O)O)cc3)nc2)cc1` [Compound 345], the EC50 was below 0.8 µM.

In the case of `CCCCCCCOc1ccc(-c2cnc(-c3ccc(C[C@H](NC(=O)c4ccc(C(C)(C)C)s4)C(=O)N[C@@H](C)CC(=O)O)cc3)nc2)cc1` [Compound 346], the EC50 fell in the range of 0.8 to 2.5 µM.

`CCCCCCCOc1ccc(-c2cnc(-c3ccc(C[C@H](NC(=O)c4ccc(C(C)(C)C)s4)C(=O)N4CCCC(C(=O)O)C4)cc3)nc2)cc1` (some centres unmarked) [Compound 347]: the EC50 was below 0.8 µM.

`CCCCCCCOc1ccc(-c2cnc(-c3ccc(C[C@H](NC(=O)c4ccc(C(C)(C)C)s4)C(=O)N4CC[C@@H](C(=O)O)C4)cc3)nc2)cc1` [Compound 348]: the EC50 was 0.8 to 2.5 µM.

For the molecule `CCCCCCCOc1ccc(-c2cnc(-c3ccc(C[C@H](NC(=O)c4ccc(C(C)(C)C)s4)C(=O)N4CC[C@H](C(=O)O)C4)cc3)nc2)cc1` [Compound 349], the EC50 is below 0.8 µM.

Regarding `CCCCCCCOc1ccc(-c2cnc(-c3ccc(C[C@H](NC(=O)c4ccc(C(C)(C)C)s4)C(=O)NC(CC(=O)O)c4ccc(O)cc4)cc3)nc2)cc1` (some centres unmarked) [Compound 350], the EC50 is below 0.8 µM.

`CC(C)(C)c1ccc(-c2cnc(-c3ccc(C[C@H](NC(=O)c4ccc(C(C)(C)C)s4)C(=O)NCC(=O)O)cc3)nc2)cc1` [Compound 351]: the EC50 is below 0.8 µM.

Regarding `CC(C)(C)c1ccc(-c2cnc(-c3ccc(C[C@H](NC(=O)c4ccc(C(C)(C)C)s4)C(=O)N[C@@H](CO)C(=O)O)cc3)nc2)cc1` [Compound 352], the EC50 is below 0.8 µM.

`CC(C)(C)c1ccc(-c2cnc(-c3ccc(C[C@H](NC(=O)c4ccc(C(C)(C)C)s4)C(=O)N[C@H](CCC(N)=O)C(=O)O)cc3)nc2)cc1` [Compound 353]: the EC50 is 0.8 to 2.5 µM.

As usually defined, the EC50 is the concentration that produces a half-maximal response.

The values above are taken from patent publication US8778923B2, “GLP-1 receptor modulators” (Receptos, Inc., priority 2011, dated 2014).
